Assay results published in patent US20070087978A1, “Method of Controlling Animal Pests” (priority 1999, published 2007).

Experiments:
[1] = system: white flies; test: Control of white flies on poinsettia; assay type: in vivo
Text: It was compared to untreated plants or plants treated with the commercial insecticides Bifenthrin, Neem Oil or Acephate.

[2] = system: Spider Mite; assay type: in vivo; details: 0.4 ounces per 10 gallons
Method: Another experiment was conducted on Marigolds in 6-inch pots. […] It was compared to untreated controls, the commercial miticide Avermectin (Avid, Merck) at 0.4 ounces per 10 gallons, and the commercial Neem-based insecticide Triact 90 at 10.0 mL per liter. There were 6 replications. Plant samples of 5 leaves were taken randomly from upper to lower plant areas.

[3] = system: nematode Aphielenchoides frageria; test: Nematode trial on Anemone vitfolia; assay type: in vivo; details: repeated measure ANOVA and Kruskal-Wallis ANOVA
Text: In another trial, no control of the nematode Aphielenchoides […] on Anemone vitfolia was found as to nematode count when measured by repeated measure analysis of variance (ANOVA) and non-[…] for either KT-19827 or Avermectin. […] The symptomatic leaf analysis was done at the end of the 12 week trial period, during which 6 sprays were applied at 2 week intervals. ANOVA was the analytical measurement methodology.

[4] = system: two spotted spider mite, Tetranychus urticae; test: Spider mite control on greenhouse-grown potted miniature roses; assay type: in vivo; details: rate 0.4 oz. per 10 gallons
Text: Mites are a serious pest of plants grown throughout the world. […] It was compared to untreated control plants or plants treated with the commercial miticide, Avermectin, (Avid) at 0.4 oz. Per 10 gallons. There were six replicate plants per treatment. Adult and nymph spider mites were counted on three areas of each plant (upper, middle, lower). The sum of these three measurements is presented.

[5] = system: Erwinia Amylovora; test: KT-19827 compared with an SAR on pear with Erwinia; assay type: in vivo
Text: Systemic Activator Resistance (SAR) materials affect the treated plant so it resists outbreaks of disease over longer periods of time. KT-19827 was compared with a leading commercial SAR called Bion or Actiguard (Acibenszolar-S-Methyl by Novaritis) against Erwinia Amylovora on pear trees, variety “Butirra”. The test was for the full growing season. Efficacy against Erwinia on the trees and fruit was 98% for […], 73.6% for Bion and zero on the untreated control pear trees. Standard label rates for each product were applied as a foliar spray in an equal manner.
The study was not designed to measure the comparative quantity of pears produced on the three plots.

[6] = system: silverleaf whitefly, Bemista argentifolii; assay type: in vivo; details: 3 days after treatment, rate 2.5 oz/10 gal. water
Method: In another study, twenty poinsettia plants were planted into 6.0 inch containers and were grown in a greenhouse and arranged in a completely randomized design (CRD). […] Plants were sampled before (precount) and 3 days after treatment (DAT) by randomly harvesting 10 leaves from each plant and then counting the number of live and dead whitefly nymphs.
All data were analyzed in a completely randomized design using a two-way analysis of variance (ANOVA) for the number of live whitefly nymphs and percent mortality 3 days after treatment. Percent mortality was determined by dividing the number of dead whiteflies by the total number of whiteflies (alive and dead).

[7] = system: Erwinia (Fireblight); details: in vivo
Text: A series of foliar sprays was applied before, during and after bloom and later in the season as needed. […] This unexpected, unusual multiple benefit indicates a phytotherapeutic defense wherein the copper molecule, it is believed, is rendered metabolizable by the plant, thereby enhancing its own defense characteristics. The molecule of copper is rendered systemic so that its action is accomplished, most importantly, inside the treated plants. Thus a continuity of protection and a reinvigorating effect on the plant are assured, which is evidenced by the quantity and unblemished quality of the fruit.
In a replicated study with controls, 10 foliar sprays were applied between March and August at times most useful to control the disease in the course of the season's adverse weather variables which encourage Erwinia. By the time of harvest, the normal state of distress of the trees' photosynthetic activity with standard copper bactericides such as copper oxychloride or the classic Bordeau mixture was missing. The consequences of this physiology were very evident at the time of harvest quantitatively and qualitatively.

Molecule: Cc1c(COC(=O)[C@@H]2[C@H](/C=C(\Cl)C(F)(F)F)C2(C)C)cccc1-c1ccccc1 (racemic) [Befenthria, Bifenthrin]
- Mean Number of White Flies ([1]; 6 Days After Treatment, rate 0.1): 27.7 living whitefly immatures per leaf
- Mean Number of White Flies ([1]; 10 Days After Treatment, rate 0.1): 8.7 living whitefly immatures per leaf

Molecule: CC[C@H](C)[C@H]1O[C@]2(C=C[C@@H]1C)C[C@@H]1C[C@@H](C/C=C(\C)[C@@H](O[C@H]3C[C@H](OC)[C@@H](O[C@H]4C[C@H](OC)[C@@H](O)[C@H](C)O4)[C@H](C)O3)[C@@H](C)/C=C/C=C3\CO[C@@H]4[C@H](O)C(C)=C[C@@H](C(=O)O1)[C@]34O)O2 [Avermectin]
- Mean Number of White Flies ([1]; 6 Days After Treatment, rate 0.5): 26.8 living whitefly immatures per leaf
- Mean Number of White Flies ([1]; 10 Days After Treatment, rate 0.5): 44.5 living whitefly immatures per leaf
- mite population, Week 2 [2]: 6.2c
- mite population, Week 3 [2]: 23.8c
- mite population, Week 1 ([2]; samples of 5 leaves): 0.0b
- control as to nematode count [3]: no control
- Mean Number of Adult and Nymph Mites ([4]; 6 Days After Treatment, sum of upper, middle, lower plant areas): 0b
- Mean Number of Adult and Nymph Mites ([4]; 10 Days After Treatment): 0.2b
- Mean Number of Adult and Nymph Mites ([4]; 16 Days After Treatment): 0.7b

Molecule: CSC(=O)c1cccc2nnsc12 [Bion, Acibenszolar-S-Methyl]
- packets of harvested pears showing evidence of disease ([5]; at harvest): 17 out of 238
- Efficacy against Erwinia on the trees and fruit ([5]; pear variety Butirra, full growing season, standard label rates, foliar spray): 73.6%

Molecule: CCOP(=S)(OCC)Oc1nc(Cl)c(Cl)cc1Cl [Chlorpyrifos, chlorpyrifos]
- Live Whitefly Nymphs (3 DAT) [6]: 143.0bc
- % Mortality ([6]; dead / total whiteflies): 34.0ab %

Molecule: tannate complex of picro cupric ammonium formate [KT-19827]
- damage to tender tissue (blooms) [7]: without damage to tender blooms
